IC50 and remaining activity data for two compounds are collected here from article PMC12445503 (Channels, 2025).

Common to all, as to type: cell-based
The target in one assay is T1, Cav1.3 (Homo sapiens, UniProt Q01668).
T1 construct: gene CACNA1D; human Cav1.3S (C-terminal short splice variant, exon 8b) α1 stably expressed in tsA-201 cells; with auxiliary β3 (rat) and α2δ1 (rabbit) subunits
Put plainly: whole-cell patch-clamp concentration-response, […] Ca2+, HP -89 mV, […] Hz. In general terms: Patch clamp records ionic current or voltage across a cell membrane.

The next assay concerns the target T2, Cav1.2 (Homo sapiens, UniProt Q13936).
T2 construct: gene CACNA1C; human Cav1.2 α1 stably expressed in tsA-201 cells; with auxiliary β3 (rat) and α2δ1 (rabbit) subunits
The description is as above.

The next assay has as its target T3, Cav2.3 (Homo sapiens, UniProt Q15878).
T3 construct: gene CACNA1E; Cav2.3e α1 transiently expressed in tsA-201 cells; with auxiliary β3 and α2δ1 subunits
Nature of the assay: whole-cell patch-clamp, […], […] Ca2+, HP -89 mV, […] Hz. Conditions: read-out: % remaining ICa / 10 μM.

T1 sequence (Q01668 whole entry, canonical isoform): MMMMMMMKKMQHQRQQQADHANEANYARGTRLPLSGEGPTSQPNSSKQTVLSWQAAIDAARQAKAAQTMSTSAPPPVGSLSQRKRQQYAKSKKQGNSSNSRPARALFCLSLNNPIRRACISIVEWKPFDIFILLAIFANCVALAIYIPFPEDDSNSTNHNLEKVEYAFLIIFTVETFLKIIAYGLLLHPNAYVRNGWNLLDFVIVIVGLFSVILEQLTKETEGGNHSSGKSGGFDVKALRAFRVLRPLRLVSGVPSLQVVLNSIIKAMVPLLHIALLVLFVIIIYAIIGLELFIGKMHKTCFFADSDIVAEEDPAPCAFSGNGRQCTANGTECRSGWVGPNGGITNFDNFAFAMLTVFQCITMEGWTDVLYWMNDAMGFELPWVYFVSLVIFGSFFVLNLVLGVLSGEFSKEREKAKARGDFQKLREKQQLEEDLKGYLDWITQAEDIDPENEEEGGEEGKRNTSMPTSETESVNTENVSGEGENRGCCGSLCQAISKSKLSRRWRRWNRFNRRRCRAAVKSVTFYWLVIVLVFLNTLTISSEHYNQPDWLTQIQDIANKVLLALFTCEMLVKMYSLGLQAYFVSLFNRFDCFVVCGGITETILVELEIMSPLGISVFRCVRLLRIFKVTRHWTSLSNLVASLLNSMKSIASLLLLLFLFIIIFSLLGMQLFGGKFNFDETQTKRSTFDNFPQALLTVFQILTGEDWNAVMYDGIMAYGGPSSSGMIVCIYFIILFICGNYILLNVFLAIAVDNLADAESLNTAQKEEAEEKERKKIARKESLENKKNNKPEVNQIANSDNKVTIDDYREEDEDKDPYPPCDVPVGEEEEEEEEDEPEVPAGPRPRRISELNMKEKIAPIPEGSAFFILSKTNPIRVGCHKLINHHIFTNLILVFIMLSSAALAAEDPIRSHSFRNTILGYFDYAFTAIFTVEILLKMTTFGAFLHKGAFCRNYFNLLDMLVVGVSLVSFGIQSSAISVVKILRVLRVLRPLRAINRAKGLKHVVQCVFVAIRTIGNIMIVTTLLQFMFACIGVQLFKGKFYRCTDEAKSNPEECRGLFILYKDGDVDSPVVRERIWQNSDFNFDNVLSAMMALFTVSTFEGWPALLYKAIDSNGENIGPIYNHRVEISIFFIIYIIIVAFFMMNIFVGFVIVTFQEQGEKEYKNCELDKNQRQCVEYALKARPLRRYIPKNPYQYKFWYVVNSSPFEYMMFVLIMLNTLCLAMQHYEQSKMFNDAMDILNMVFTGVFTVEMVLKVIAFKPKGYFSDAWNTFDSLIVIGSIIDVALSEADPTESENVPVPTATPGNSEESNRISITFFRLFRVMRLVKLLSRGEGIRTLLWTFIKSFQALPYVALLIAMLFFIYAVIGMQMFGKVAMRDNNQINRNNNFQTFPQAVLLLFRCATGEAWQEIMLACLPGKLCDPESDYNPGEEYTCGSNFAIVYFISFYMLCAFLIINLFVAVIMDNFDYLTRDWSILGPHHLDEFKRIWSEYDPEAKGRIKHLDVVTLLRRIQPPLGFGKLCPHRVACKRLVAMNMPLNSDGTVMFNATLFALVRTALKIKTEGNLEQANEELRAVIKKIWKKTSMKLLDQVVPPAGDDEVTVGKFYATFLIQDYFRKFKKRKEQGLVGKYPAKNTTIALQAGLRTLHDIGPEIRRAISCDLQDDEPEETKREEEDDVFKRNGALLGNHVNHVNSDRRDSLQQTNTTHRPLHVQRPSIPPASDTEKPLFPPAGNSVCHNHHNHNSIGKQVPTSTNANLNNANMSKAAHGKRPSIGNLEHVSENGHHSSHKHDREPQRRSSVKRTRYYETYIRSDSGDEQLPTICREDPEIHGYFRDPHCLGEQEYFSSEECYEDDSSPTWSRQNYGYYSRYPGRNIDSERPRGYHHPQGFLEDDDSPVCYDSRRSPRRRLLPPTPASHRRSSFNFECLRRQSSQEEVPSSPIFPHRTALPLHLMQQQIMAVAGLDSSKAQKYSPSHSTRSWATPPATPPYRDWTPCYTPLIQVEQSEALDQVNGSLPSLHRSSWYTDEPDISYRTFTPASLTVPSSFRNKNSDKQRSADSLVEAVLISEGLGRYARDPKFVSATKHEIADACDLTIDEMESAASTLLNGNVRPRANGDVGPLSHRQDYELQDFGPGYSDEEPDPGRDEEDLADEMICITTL
T1 sequence (P54287 whole entry partner, canonical isoform): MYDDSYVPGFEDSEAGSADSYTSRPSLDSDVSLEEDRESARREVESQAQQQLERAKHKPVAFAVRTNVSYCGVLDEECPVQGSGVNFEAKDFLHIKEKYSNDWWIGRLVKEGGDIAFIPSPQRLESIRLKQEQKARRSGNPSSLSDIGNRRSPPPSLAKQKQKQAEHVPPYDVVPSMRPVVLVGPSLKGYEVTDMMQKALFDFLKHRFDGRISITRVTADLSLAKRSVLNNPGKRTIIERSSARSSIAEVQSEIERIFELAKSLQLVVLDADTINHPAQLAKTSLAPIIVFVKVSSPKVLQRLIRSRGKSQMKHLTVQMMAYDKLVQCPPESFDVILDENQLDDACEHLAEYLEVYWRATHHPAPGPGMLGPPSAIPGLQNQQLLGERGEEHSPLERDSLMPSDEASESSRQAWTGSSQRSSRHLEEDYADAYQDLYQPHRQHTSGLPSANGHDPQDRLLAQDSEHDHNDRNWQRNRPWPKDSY
T1 sequence (P13806 27-960 partner): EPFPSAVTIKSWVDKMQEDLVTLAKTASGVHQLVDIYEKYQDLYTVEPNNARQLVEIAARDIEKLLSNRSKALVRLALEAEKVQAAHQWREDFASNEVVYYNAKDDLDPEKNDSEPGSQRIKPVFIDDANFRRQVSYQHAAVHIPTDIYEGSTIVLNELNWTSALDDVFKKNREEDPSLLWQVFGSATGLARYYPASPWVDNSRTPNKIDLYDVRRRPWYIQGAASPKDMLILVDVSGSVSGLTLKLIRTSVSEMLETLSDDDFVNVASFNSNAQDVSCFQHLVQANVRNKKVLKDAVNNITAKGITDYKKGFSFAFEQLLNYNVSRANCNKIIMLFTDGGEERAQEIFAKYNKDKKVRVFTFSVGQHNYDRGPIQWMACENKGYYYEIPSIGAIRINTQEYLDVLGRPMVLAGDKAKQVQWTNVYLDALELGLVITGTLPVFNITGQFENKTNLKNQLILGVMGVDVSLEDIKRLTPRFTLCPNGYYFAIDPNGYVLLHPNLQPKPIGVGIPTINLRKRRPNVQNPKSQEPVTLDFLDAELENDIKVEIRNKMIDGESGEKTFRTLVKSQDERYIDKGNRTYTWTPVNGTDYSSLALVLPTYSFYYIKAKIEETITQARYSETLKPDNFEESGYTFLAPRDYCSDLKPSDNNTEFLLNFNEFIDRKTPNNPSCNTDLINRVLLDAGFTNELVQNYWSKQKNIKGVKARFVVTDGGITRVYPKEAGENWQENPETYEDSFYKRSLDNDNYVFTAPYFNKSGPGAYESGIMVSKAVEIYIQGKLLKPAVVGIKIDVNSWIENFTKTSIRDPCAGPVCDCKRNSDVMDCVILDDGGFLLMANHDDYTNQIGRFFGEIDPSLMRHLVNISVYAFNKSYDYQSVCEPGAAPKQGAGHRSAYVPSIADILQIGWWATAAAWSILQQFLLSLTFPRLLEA
T1 sequence (P13806 961-1106 partner): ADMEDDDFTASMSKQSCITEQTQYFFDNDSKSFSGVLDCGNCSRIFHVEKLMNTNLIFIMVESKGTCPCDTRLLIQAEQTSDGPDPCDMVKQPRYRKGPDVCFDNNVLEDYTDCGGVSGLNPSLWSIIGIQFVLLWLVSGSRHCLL

With `COC(=O)C1=C(C)NC(C)=C(C(=O)OC(C)C)C1c1cccc2nonc12` (stereo not shown) [isradipine], on Cav1.3, inhibition was half-maximal at 0.134 µM (IC50).
As for `C=C[C@](C)(O)CC[C@@H]1[C@@]2(C)CCCC(C)(C)[C@@H]2CC[C@@]1(C)O` [sclareol], the IC50 was found to be 12.5 µM on Cav1.2 and 16.3 µM against Cav1.3. The remaining activity at 10 µM on Cav2.3 amounted to 36.7 ± 11.2%.

Usually IC50 stands for the concentration needed to halve the response being measured.
